ChEMBL document CHEMBL4007424, “Design and Synthesis of Enantiomerically Pure Decahydroquinoxalines as Potent and Selective κ-Opioid Receptor Agonists with Anti-Inflammatory Activity in Vivo” (J Med Chem, 2017)
pEC50, pKi: −log10 of the molar value.

How the values were obtained:
[1] = Plasma concentration in Wistar Han rat at 5 mg/kg, iv measured 0.25 hrs post compound administration; format: ADME, organism-based
[2] = Drug level in Wistar Han rat brain at 5 mg/kg, iv measured 1 hr post compound administration; format: ADME, organism-based; details: read-out: Drug uptake
[3] = Ratio of drug level in brain to plasma in Wistar Han rat at 5 mg/kg, iv after 1 hr; format: ADME, organism-based; details: read-out: BPR
[4] = Plasma concentration in Wistar Han rat at 5 mg/kg, iv measured 1 hr post compound administration; format: ADME, organism-based
[5] = system: Rattus norvegicus; experiment: Toxicity in Wistar Han rat assessed as assessed as clinical signs changes at 5 mg/kg, iv after 1 hr; format: organism-based; details: in vivo
[6] = species on record: Rattus norvegicus; experiment: Displacement of [3H]-DTG from sigma 2 receptor in rat liver membranes at 1 uM after 120 mins by scintillation counting; format: cell membranes; details: Membrane
[7] = target: Sigma non-opioid intracellular receptor 1 (Cavia porcellus) (UniProt Q60492); experiment: Displacement of [3H]-(+)-pentazocine from sigma1-type […] receptor in guinea pig cortex membranes at 1 uM after 120 mins by solid scintillation counting; format: cell membranes
Chain of Sigma non-opioid intracellular receptor 1 (Cavia porcellus) (Q60492 whole entry): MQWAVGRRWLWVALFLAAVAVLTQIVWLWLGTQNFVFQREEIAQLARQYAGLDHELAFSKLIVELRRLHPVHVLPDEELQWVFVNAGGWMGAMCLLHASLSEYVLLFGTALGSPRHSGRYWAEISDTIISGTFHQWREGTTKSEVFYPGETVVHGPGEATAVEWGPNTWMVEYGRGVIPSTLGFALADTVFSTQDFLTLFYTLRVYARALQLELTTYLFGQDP

[8] = species on record: Sus scrofa; experiment: Displacement of [3H]-(+)-MK 801 from PCP binding site of NMDA receptor in pig brain cortex membranes at 10 uM after 120 mins by solid scintillation counting; format: cell membranes
[9] = target: T1, Kappa-type opioid receptor (Homo sapiens, UniProt P41145); experiment: Agonist activity at recombinant human kappa-type opioid receptor expressed in HEK293 cells at 1 uM after 30 mins by [35S]GTPgammaS binding assay; format: functional, cell-based
T1 sequence (P41145 whole entry): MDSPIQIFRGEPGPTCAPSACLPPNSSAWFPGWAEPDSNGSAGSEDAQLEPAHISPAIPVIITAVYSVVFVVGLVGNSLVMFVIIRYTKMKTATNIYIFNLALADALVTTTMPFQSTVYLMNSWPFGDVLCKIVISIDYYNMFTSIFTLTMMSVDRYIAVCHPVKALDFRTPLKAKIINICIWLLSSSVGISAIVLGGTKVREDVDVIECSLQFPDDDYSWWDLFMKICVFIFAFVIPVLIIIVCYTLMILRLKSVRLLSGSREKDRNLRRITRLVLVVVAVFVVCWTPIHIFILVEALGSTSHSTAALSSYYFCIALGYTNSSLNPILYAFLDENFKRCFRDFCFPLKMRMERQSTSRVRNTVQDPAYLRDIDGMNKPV

[10] = Displacement of [3H]DPDPE from delta-type opioid receptor in guinea pig brain membranes after 120 mins by solid scintillation counting; format: cell membranes, Cavia porcellus, Membrane
[11] = target: Kappa-type opioid receptor (Cavia porcellus, UniProt P41144); experiment: Displacement of [3H]U-69,593 from kappa-type opioid receptor in guinea pig brain membranes after 120 mins by solid scintillation counting; format: cell membranes, Membrane
Chain of Kappa-type opioid receptor (Cavia porcellus, UniProt P41144) (P41144 whole entry): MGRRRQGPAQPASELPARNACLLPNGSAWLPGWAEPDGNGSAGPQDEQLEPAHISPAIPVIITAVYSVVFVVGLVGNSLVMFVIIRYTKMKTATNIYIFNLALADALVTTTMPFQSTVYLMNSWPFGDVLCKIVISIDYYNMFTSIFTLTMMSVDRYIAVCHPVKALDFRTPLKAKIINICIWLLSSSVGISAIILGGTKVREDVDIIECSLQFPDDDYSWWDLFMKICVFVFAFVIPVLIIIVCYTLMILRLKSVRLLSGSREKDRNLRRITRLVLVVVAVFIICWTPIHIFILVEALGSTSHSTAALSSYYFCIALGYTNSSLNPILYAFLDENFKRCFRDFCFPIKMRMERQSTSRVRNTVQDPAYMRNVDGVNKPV

[12] = target: Mu-type opioid receptor (Cavia porcellus) (UniProt P97266); experiment: Displacement of [3H]DAMGO from mu-type opioid receptor in guinea pig brain membranes at 1 uM after 120 mins by solid scintillation counting; format: cell membranes; details: Membrane
Chain of Mu-type opioid receptor (Cavia porcellus) (P97266 whole entry): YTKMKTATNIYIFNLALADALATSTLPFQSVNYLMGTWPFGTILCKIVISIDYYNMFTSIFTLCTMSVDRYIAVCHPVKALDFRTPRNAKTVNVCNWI

[13] = target: T1, Kappa-type opioid receptor; experiment: Agonist activity at recombinant human kappa-type opioid receptor expressed in HEK293 cells after 30 mins by [35S]GTPgammaS binding assay; format: functional, cell-based
[14] = target: Mu-type opioid receptor (Cavia porcellus, UniProt P97266); experiment: Displacement of [3H]DAMGO from mu-type opioid receptor in guinea pig brain membranes after 120 mins by solid scintillation counting; format: cell membranes, Membrane
Chain of Mu-type opioid receptor (P97266 whole entry): as above

[15] = system: Mus musculus; experiment: Antiinflammatory activity in arachidonic acid-induced ear dermatitis ICR mouse model assessed as reduction in ear swelling at 1 mg administered twice tropically 30 mins prior and 15 mins after arachidonic acid addition measured 60 mins post arachidonic acid challenge relative to control; format: functional
[16] = system: Mus musculus; experiment: Antiinflammatory activity in arachidonic acid-induced ear dermatitis ICR mouse model assessed as reduction in ear swelling at 0.3 mg administered twice tropically 30 mins prior and 15 mins after arachidonic acid addition measured 60 mins post arachidonic acid challenge relative to control; format: functional
[17] = system: Mus musculus; experiment: Antiinflammatory activity in arachidonic acid-induced ear dermatitis ICR mouse model assessed as reduction in ear swelling at 3 mg administered twice tropically 30 mins prior and 15 mins after arachidonic acid addition measured 60 mins post arachidonic acid challenge relative to control; format: functional
[18] = system: Mus musculus; experiment: Antiinflammatory activity in arachidonic acid-induced ear dermatitis ICR mouse model assessed as reduction in ear swelling at 0.1 mg administered twice tropically 30 mins prior and 15 mins after arachidonic acid addition measured 60 mins post arachidonic acid challenge relative to control; format: functional
[19] = Lipophilicity, logD of the compound at pH 7.4 by LC/MS analysis; format: physicochemical; details: buffer

| Compound | concentration at 0.25 h [1] | concentration at 1 h [2] | Kp at 1 h [3] | concentration at 1 h [4] | Activity [5] | inhibition [6] | inhibition [7] | inhibition [8] | Activity [9] | pKi [10] | pKi [11] | pEC50 [13] | other results |
| --- | --- | --- | --- | --- | --- | --- | --- | --- | --- | --- | --- | --- | --- |
| COC(=O)N1CCN(C(=O)Cc2ccc(Cl)c(F)c2)[C@@H]2[C@@H](N3CC[C@H](O)C3)CCC[C@@H]21.Cl | 1350 ng/mL | 66.2 ng/g | 0.12 | 546 ng/mL | Non-Toxic | – | – | – | – | – | – | – | – |
| CS(=O)(=O)N1CCN(C(=O)Cc2ccc(Cl)c(F)c2)[C@@H]2[C@@H](N3CC[C@H](O)C3)CCC[C@@H]21.Cl | 938 ng/mL | 37.5 ng/g | 0.09 | 437 ng/mL | Non-Toxic | – | – | – | – | – | – | – | – |
| COC(=O)N1CCN(C(=O)Cc2ccc(F)c(F)c2)[C@@H]2[C@@H](N3CC[C@H](O)C3)CCC[C@@H]21.Cl | 1410 ng/mL | 46.4 ng/g | 0.12 | 392 ng/mL | Non-Toxic | – | – | – | – | – | – | – | – |
| CS(=O)(=O)N1CCN(C(=O)Cc2ccc(Cl)c(F)c2)[C@@H]2[C@@H](N3CC[C@H](O)C3)CCC[C@@H]21 | – | – | – | – | – | 0% | 12% | 16% | 105% | – | – | – | – |
| COC(=O)N1CCN(C(=O)Cc2cccc(Cl)c2)[C@@H]2[C@@H](N3CC[C@H](O)C3)CCC[C@@H]21.Cl | 1500 ng/mL | 41.2 ng/g | 0.1 | 414 ng/mL | Non-Toxic | – | – | – | – | – | – | – | – |
| CN(C)S(=O)(=O)N1CCN(C(=O)Cc2ccc(Cl)c(Cl)c2)[C@@H]2[C@@H](N3CCCC3)CCC[C@@H]21 | – | – | – | – | – | 0% | 0% | – | 105% | – | – | – | – |
| CS(=O)(=O)N1CCN(C(=O)Cc2ccc(Cl)c(Cl)c2)[C@@H]2[C@@H](N3CCCC3)CCC[C@@H]21 [listing 1 of 2 here] | – | – | – | – | – | 5% | 0% | 0% | 106% | – | – | – | – |
| COC(=O)N1CCN(C(=O)Cc2ccc(C(F)(F)F)c(Cl)c2)[C@@H]2[C@@H](N3CC[C@H](O)C3)CCC[C@@H]21 [listing 1 of 2 here] | – | – | – | – | – | 5% | 30% | 0% | 100% | – | – | – | – |
| CS(=O)(=O)N1CCN(C(=O)Cc2ccc(Cl)c(Cl)c2)[C@@H]2[C@@H](N3CC[C@H](O)C3)CCC[C@@H]21.Cl | 4650 ng/mL | 52.3 ng/g | 0.02 | 2170 ng/mL | Non-Toxic | – | – | – | – | – | – | – | – |
| O=C(Cc1ccc(Cl)cc1)N1CCN(S(=O)(=O)Cc2ccon2)[C@H]2CCC[C@H](N3CC[C@H](O)C3)[C@H]21 | – | – | – | – | – | 0% | 24% | 0% | 103% | 6.06 | 9.01 | 8.16 | inhibition [12]: 0% |
| CS(=O)(=O)N1CCN(C(=O)Cc2ccc(Cl)c(Cl)c2)[C@@H]2[C@@H](N3CCCC3)CCC[C@@H]21 [listing 2 of 2 here] | – | – | – | – | – | – | – | – | – | 5.96 | 9.51 | 8.82 | pKi [14]: 7.04 |
| CS(=O)(=O)N1CCN(C(=O)Cc2ccc(F)c(Cl)c2)[C@@H]2[C@@H](N3CC[C@H](O)C3)CCC[C@@H]21 | – | – | – | – | – | – | – | – | – | 6.24 | 8.77 | 8.23 | inhibition (INH) [15]: 56%; inhibition (INH) [16]: 43%; inhibition (INH) [17]: 69%; inhibition (INH) [18]: 22% |
| CC(C)NC(=O)N1CCN(C(=O)Cc2ccc(Cl)c(Cl)c2)[C@@H]2[C@@H](N3CCCC3)CCC[C@@H]21 | – | – | – | – | – | 0% | 0% | 0% | 100% | – | – | – | inhibition [12]: 0% |
| COC(=O)N1CCN(C(=O)Cc2ccc(F)c(F)c2)[C@@H]2[C@@H](N3CC[C@H](O)C3)CCC[C@@H]21 | – | – | – | – | – | – | – | – | – | 6.21 | 8.92 | 7.96 | logD [19]: 0.77; inhibition (INH) [15]: -11%; inhibition (INH) [16]: -20%; inhibition (INH) [17]: 64%; inhibition (INH) [18]: 1% |
| COC(=O)N1CCN(C(=O)Cc2ccc(C(F)(F)F)c(Cl)c2)[C@@H]2[C@@H](N3CC[C@H](O)C3)CCC[C@@H]21 [listing 2 of 2 here] | – | – | – | – | – | – | – | – | – | 6.40 | 9.57 | 9.52 | pKi [14]: 6.21 |
